ChEMBL document CHEMBL5346875, “Annual review of KRAS inhibitors in 2022” (Eur J Med Chem, 2023)

What was measured:
[1] = system: GTPase KRas (Homo sapiens), P01116 [G12S]; experiment: Covalent modification of GDP-bound recombinant human KRAS G12S mutant at 10 uM incubated for 12 hrs by mass spectrometry analysis relative to control
[2] = system: GTPase KRas (Homo sapiens), P01116 [G12S]; experiment: Covalent modification of GDP-bound recombinant human KRAS G12S mutant at 10 uM incubated for 1 hr by mass spectrometry analysis relative to control
[3] = Antiproliferative activity against human KMS-20 cells harboring KRAS G12S mutant assessed as inhibition of cell growth incubated for 72 hrs by CellTiter-Glo luminescent assay; type: functional, cell-based; details: KMS-20, 72 h
BaF3 [4] = experiment: Antiproliferative activity against mouse BaF3 cells harboring KRAS G12S mutant assessed as inhibition of cell growth incubated for 72 hrs by CellTiter-Glo luminescent assay; type: functional, cell-based; details: BaF3, 72 h
BaF3 [5] = experiment: Antiproliferative activity against mouse BaF3 cells harboring wild type KRAS assessed as inhibition of cell growth incubated for 72 hrs by CellTiter-Glo luminescent assay; type: functional, cell-based; details: BaF3, 72 h
GTPase KRas = GTPase KRas (Homo sapiens, UniProt P01116, G12S); experiment: Inhibition of GTP-bound KRAS G12S mutant in human A549 cells incubated for 2 hrs by immunoblot analysis; type: cell-based
[6] = system: GTPase KRas (Homo sapiens), P01116 [G12S]; experiment: Covalent modification of GDP-bound recombinant human KRAS G12S mutant at 10 uM incubated for 10 mins by mass spectrometry analysis relative to control
NCI-H23 = experiment: Antiproliferative activity against human NCI-H23 cells harboring KRAS G12C mutant assessed as inhibition of cell growth; type: functional, cell-based
NCI-H358 [7] = experiment: Antiproliferative activity against human NCI-H358 cells harboring KRAS G12C mutant assessed as inhibition of cell growth; type: functional, cell-based
NCI-H358 [8] = experiment: Antiproliferative activity against human NCI-H358 cells harboring KRAS G12C mutant assessed as inhibition of cell growth by resazurin dye based assay; type: functional
[9] = Inhibition of ERK phosphorylation in human NCI-H358 cells harboring KRAS G12C mutant by Western blot analysis; type: cell-based
[10] = target: Protein cereblon/GTPase KRas (Homo sapiens, UniProt P01116+Q96SW2, G12C); experiment: PROTAC activity at CRBN/KRAS G12C mutant in human NCI-H358 cells assessed as induction of KRAS G12C degradation; type: cell-based
Chain of Protein cereblon/GTPase KRas (P01116 whole entry G12C, stated change not applied): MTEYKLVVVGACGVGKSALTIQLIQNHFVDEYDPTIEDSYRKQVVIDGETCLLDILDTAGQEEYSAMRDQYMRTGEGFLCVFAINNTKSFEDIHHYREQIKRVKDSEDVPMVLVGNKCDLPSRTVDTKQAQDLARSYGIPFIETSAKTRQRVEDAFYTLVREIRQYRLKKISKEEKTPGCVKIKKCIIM
Chain of Protein cereblon/GTPase KRas (Q96SW2 whole entry, stated change not applied): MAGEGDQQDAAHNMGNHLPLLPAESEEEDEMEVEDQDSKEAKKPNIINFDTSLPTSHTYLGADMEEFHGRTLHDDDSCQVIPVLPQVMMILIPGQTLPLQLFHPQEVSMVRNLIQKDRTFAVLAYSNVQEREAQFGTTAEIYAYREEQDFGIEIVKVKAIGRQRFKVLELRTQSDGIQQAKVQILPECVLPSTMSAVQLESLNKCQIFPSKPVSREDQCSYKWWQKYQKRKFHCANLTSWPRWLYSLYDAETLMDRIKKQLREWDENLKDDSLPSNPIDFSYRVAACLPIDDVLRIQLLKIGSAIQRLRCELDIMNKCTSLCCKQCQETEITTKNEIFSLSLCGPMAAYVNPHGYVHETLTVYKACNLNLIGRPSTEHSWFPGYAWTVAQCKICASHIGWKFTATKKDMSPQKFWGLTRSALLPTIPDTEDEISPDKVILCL

Chain of GTPase KRas (Homo sapiens), P01116 [G12S] (P01116 whole entry G12S): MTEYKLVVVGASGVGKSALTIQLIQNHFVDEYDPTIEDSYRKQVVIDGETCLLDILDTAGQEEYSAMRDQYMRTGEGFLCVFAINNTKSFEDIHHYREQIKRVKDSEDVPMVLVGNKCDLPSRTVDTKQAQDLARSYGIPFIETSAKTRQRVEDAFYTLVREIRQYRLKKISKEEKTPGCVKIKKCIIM
Chain of GTPase KRas (P01116 whole entry G12S): as above

With CN1CCC[C@H]1COc1nc2c(c(N3CCC4C(=O)OC4C3)n1)CCN(c1cccc3cccc(Cl)c13)C2 (stereo partly drawn) the Activity [1] was 100% and the Activity [2] was 64%.
O=C1O[C@H]2CN(c3nc(OCC45CCCN4CCC5)nc4c(F)c(-c5cccc6cccc(Cl)c56)ncc34)CC[C@@H]12 showed an IC50 [3] of 7500 nM, an IC50 (BaF3 [4]) of 2400 nM and an IC50 (BaF3 [5]) of 12500 nM. The IC50 (GTPase KRas) was 3000 nM and the Activity [6] was 100%.
With C=C(C(=O)N1CCN(c2ncnc3c(F)c(-c4cc(Cl)ccc4OC)c(Cl)cc23)[C@H](C)C1)C(F)(F)F the IC50 (NCI-H23) was 1550 nM and the IC50 (NCI-H358 [7]) was 780 nM.
Compound C=CC(=O)N1CC2(CC(n3nc(-c4ccc5c(cnn5C)c4)c(-c4c(Cl)c(C)cc5[nH]ncc45)c3C)C2)C1 [OPNURASIB] has an IC50 (NCI-H358 [8]) of 19 nM and an IC50 [9] of 18 nM.
In the case of COc1cc(Cl)c(-c2cc(Cl)ccc2Cl)cc1C(=O)N1CCN(C(=O)/C=C\C(=O)NCCCCCCNc2cccc3c2C(=O)N(C2CCC(=O)NC2=O)C3=O)CC1 (stereo not drawn), the DC50 [10] is reported as 1250 nM and the IC50 (NCI-H358 [7]) is reported as 17400 nM.
